In one assay the test system is HSVgpB-specific CTLs. The experiment in a line: Activation of cytotoxic T cells in cervical lymph nodes after tape stripping (HSVgpB pentamer flow cytometry). Type of assay: in vivo, C57BL/6(B6) mice. As to conditions: Example 1(3), TS followed by application of HSVgpB and the EP4 agonist. As for the experimental part:
The corneal layers of the auricles of C57BL/6(B6) mice were destroyed by repeating a stripping procedure using an adhesive tape in 10 cycles, and an antigen peptide or EP4 agonist was applied as a test substance. The antigen peptide used was a melanoma-specific antigen peptide (Accord K.K. Peptide Business Department; hereinafter abbreviated TRP-2) in solution in 70% ethanol; 10 μg was applied to one side of each auricle. The EP4 agonist used was 11α,15α,-dihydroxy-9-oxo-16-(3-methoxymethylphenyl)-17,18,19,20-tetranol-3,7-dithiaprost-13E-enoic acid (hereinafter abbreviated Compound A-(1)) in solution in a mixed solvent of acetone:olive oil=10:1; 20 μL of 100 μM solution was applied to one side of each auricle. One week after application of the test substance, the cervical lymph nodes were removed. The frequency of TRP-2-specific CTLs was determined relative to the total number of mononucleocytes in the cervical lymph nodes as 100 by a flowcytometric analysis (FACScaliber; Becton, Dickinson and Company.) with a tetramer (Medical & Biological Laboratories Co., Ltd.). Four experimental groups were established: (1) a group undergoing tape stripping (hereinafter abbreviated TS) alone, (2) a group undergoing TS followed by application of TRP-2, (3) a group undergoing TS followed by application of Compound A-(1), and (4) a group undergoing TS followed by application of TRP-2 and Compound A-(1).
The same procedures as Example 1(1) were followed except that the antigen peptide used was the herpes simplex virus-specific antigen HSV glycoprotein B (hereinafter abbreviated HSVgpB), and that a flowcytometric analysis with a pentamer (ProImmune Company) was performed, and the action of each compound to activate cytotoxic T cells was evaluated. Five experimental groups were established: (1) a group undergoing TS alone, (2) a group undergoing TS followed by application of HSVgpB, (3) a group undergoing TS followed by application of HSVgpB and Compound A-(1), (4) a group undergoing TS followed by application of HSVgpB and Compound L-(1), and (5) a group undergoing TS followed by application of HSVgpB and Compound M-(1).
Note that the herpes simplex virus-specific antigen peptide HSVgpB was synthesized on the basis of the partial sequence shown by SEQ ID NO. 2 (Virology, Vol. 195, pp. 62-70, (1993)) (ProImmune Company).

For the next assay, the system named is TRP-2-specific CTLs. Nature of the assay: Activation of cytotoxic T cells in isolated Langerhans cells co-cultured with lymphocytes. It counts as cell-based, C57BL/6(B6) mouse. How it is done:
A given area of an auricle epidermal sheet was removed from the corneal layer of one auricle of each C57BL/6(B6) mouse, and trypsinized to yield an epidermal cell suspension. The epidermal cell suspension obtained was subjected to panning using an antibody specific for I-A^b antigen to isolate epidermal Langerhans cells. After each test substance (TRP-2 (concentration; 10 μg/mL) and Compound A-(1) (1 μM)) was added to the Langerhans cells isolated (cell density; 10^5 cells per mL), the cells were cultured with a medium (cRPMI1640 medium; Sigma-Aldrich Japan). Half a day later, the cells were co-cultured with splenocytic lymphocytes isolated from […] for 7 days. Subsequently, by a flowcytometric analysis (FACScaliber; Becton, Dickinson and Company.) using a tetramer (Medical & Biological Laboratories Co., Ltd.), the frequency of TRP-2-specific CTLs was determined relative to the total number of mononucleocytes in the medium as 100. Three experimental groups were established: (1) a group with no treatment, (2) a group with the addition of TRP-2, and (3) a group with the addition of both TRP-2 and Compound A-(1).

Here are results for one compound from patent publication US8507545B2, “Cytotoxic T cell activator comprising EP4 agonist” (National University Corporation, Hamamatsu University …, priority 2007, dated 2013).

For `COCc1cccc(C[C@H](O)/C=C/[C@H]2[C@H](O)CC(=O)[C@@H]2SCCCSCC(=O)O)c1` [Compound A-(1), 11α,15α,-dihydroxy-9-oxo-16-(3-methoxymethylphenyl)-17,18,19,20-tetranol-3,7-dithiaprost-13E-enoic acid], the “Ratio of HSVgpB-specific CTLs” value with HSVgpB-specific CTLs came out at 0.41. In addition, the “Ratio of TRP-2-specific CTLs” value in the assay with TRP-2-specific CTLs (addition of both TRP-2 (10 μg/mL) and Compound A-(1) (1 μM), 7 days co-culture, relative to total mononucleocytes in the medium as 100) is 6.6. Moreover, the “action of inducing TRP-2-specific CTLs compared with TRP-2” value in the assay on TRP-2-specific CTLs (isolated Langerhans cells) is on record as “equivalent”.
